Measured values reported in US5744121A (priority 1996, dated 1998).
Where two headings read alike, the source gives them in different places.

Assays:
[1] = Regional brain distribution in rats after iv injection; assay type: in vivo, Male Sprague-Dawley rats; conditions: rat, iv, rats (Table III); for tissue uptake at 0.5 h: 30 min; for tissue uptake at 1 h: 60 min; for tissue uptake at 2 h: 120 min
Experimental: While the rats were under ether anesthesia, 0.2 mL of a saline solution containing [^123 I]1a and 1b (8-10 μCi) was injected directly into the femoral vein, and rats were sacrificed at various time points postinjection by cardiac excision under ether anesthesia. The organs of interest were removed and weighed and the radioactivity was counted with a Packard garnma automatic counter (Model 5000). The percentage dose per organ was calculated by a comparison of the tissue counts to suitably diluted aliquots of the injected material. Total activities of blood and muscle were calculated under the assumption that they were 7% and 40% of the total body weight, respectively.
By dissecting, weighing and counting samples from different brain regions (cortex, striatum, hippocampus, hypothalamus and cerebellum), the percentage dose/gram of the sample was calculated by comparing the sample counts with the count of the diluted initial dose.

[2] = Biodistribution in rats after iv injection; assay type: in vivo, Male Sprague-Dawley rats; conditions: average of 3 rats ± SD
Experimental: Male Sprague-Dawley rats (225-300 g), allowed free access to food and water, were used for an in vivo biodistribution study. While the rats were under ether anesthesia, 0.2 mL of a saline solution containing [^123 I]1a and 1b (8-10 μCi) was injected directly into the femoral vein, and rats were sacrificed at various time points postinjection by cardiac excision under ether anesthesia. The organs of interest were removed and weighed and the radioactivity was counted with a Packard […] automatic counter (Model 5000). The percentage dose per organ was calculated by a comparison of the tissue counts to suitably diluted aliquots of the injected material.

[3] = Stability of the radiolabelled product on storage; assay type: physicochemical; conditions: -20° C., at least four weeks, HPLC; 40320 min
[4] = Partition coefficient (octanol/phosphate); assay type: physicochemical; conditions: octanol/0.1M phosphate, pH 7.0; read-out: P.C (partition coefficient) (converted)
Source text: P.C = 1800 (octanol/0.1M phosphate, pH 7.0)

[5] = cerebellum, read-out: Regional distribution, cerebellum
[6] = cortex, read-out: Regional distribution, cortex
[7] = hippocampus, read-out: Regional distribution, hippocampus
[8] = hypothalamus, read-out: Regional distribution, hypothalamus
[9] = striatum, read-out: Regional distribution, striatum

COc1ccccc1N1CCN(CCN(C(=O)c2ccc([123I])cc2)c2ccccn2)CC1 [[^123 I] 1a]
tissue uptake at 2 min [1, 5]: 0.64 ± 0.08 %ID/g
tissue uptake at 0.5 h [1, 5]: 0.07 ± 0.006 %ID/g
tissue uptake at 1 h [1, 5]: 0.04 ± 0.001 %ID/g
tissue uptake at 2 h [1, 5]: 0.024 ± 0.0002 %ID/g
tissue uptake at 2 min [1, 6]: 0.91 ± 0.06 %ID/g
tissue uptake at 0.5 h [1, 6]: 0.11 ± 0.01 %ID/g
tissue uptake at 1 h [1, 6]: 0.061 ± 0.002 %ID/g
tissue uptake at 2 h [1, 6]: 0.026 ± 0.002 %ID/g
tissue uptake at 2 min [1, 7]: 0.87 ± 0.18 %ID/g
tissue uptake at 0.5 h [1, 7]: 0.23 ± 0.007 %ID/g
tissue uptake at 1 h [1, 7]: 0.127 ± 0.009 %ID/g
tissue uptake at 2 h [1, 7]: 0.04 ± 0.003 %ID/g
tissue uptake at 2 min [1, 8]: 0.67 ± 0.1 %ID/g
tissue uptake at 0.5 h [1, 8]: 0.14 ± 0.04 %ID/g
tissue uptake at 1 h [1, 8]: 0.051 ± 0.004 %ID/g
tissue uptake at 2 h [1, 8]: 0.03 ± 0.0002 %ID/g
tissue uptake at 2 min [1, 9]: 0.76 ± 0.12 %ID/g
tissue uptake at 0.5 h [1, 9]: 0.09 ± 0.0001 %ID/g
tissue uptake at 1 h [1, 9]: 0.046 ± 0.004 %ID/g
tissue uptake at 2 h [1, 9]: 0.021 ± 0.0007 %ID/g
Blood uptake ([2]; 2 min): 4.49 ± 0.55 % dose/organ
Brain uptake ([2]; 2 min): 1.22 ± 0.22 % dose/organ
Heart uptake ([2]; 2 min): 0.91 ± 0.09 % dose/organ
Kidney uptake ([2]; 2 min): 5.20 ± 0.44 % dose/organ
Liver uptake ([2]; 2 min): 14.2 ± 3.1 % dose/organ
Lung uptake ([2]; 2 min): 2.39 ± 0.10 % dose/organ
Muscle uptake ([2]; 2 min): 11.29 ± 4.15 % dose/organ
Skin uptake ([2]; 2 min): 8.34 ± 1.22 % dose/organ
Spleen uptake ([2]; 2 min): 0.37 ± 0.13 % dose/organ
Thyroid uptake ([2]; 2 min): 0.09 ± 0.02 % dose/organ
Blood uptake ([2]; 30 min): 4.04 ± 1.24 % dose/organ
Brain uptake ([2]; 30 min): 0.22 ± 0.01 % dose/organ
Heart uptake ([2]; 30 min): 0.18 ± 0.04 % dose/organ
Kidney uptake ([2]; 30 min): 1.74 ± 0.49 % dose/organ
Liver uptake ([2]; 30 min): 8.71 ± 0.20 % dose/organ
Lung uptake ([2]; 30 min): 0.48 ± 0.05 % dose/organ
Muscle uptake ([2]; 30 min): 7.58 ± 2.48 % dose/organ
Skin uptake ([2]; 30 min): 8.24 ± 1.60 % dose/organ
Spleen uptake ([2]; 30 min): 0.14 ± 0.02 % dose/organ
Thyroid uptake ([2]; 30 min): 0.03 ± 0.02 % dose/organ
Blood uptake ([2]; 60 min): 2.73 ± 0.09 % dose/organ
Brain uptake ([2]; 60 min): 0.12 ± 0.005 % dose/organ
Heart uptake ([2]; 60 min): 0.13 ± 0.02 % dose/organ
Kidney uptake ([2]; 60 min): 1.06 ± 0.23 % dose/organ
Liver uptake ([2]; 60 min): 7.53 ± 0.99 % dose/organ
Lung uptake ([2]; 60 min): 0.31 ± 0.04 % dose/organ
Muscle uptake ([2]; 60 min): 4.34 ± 0.91 % dose/organ
Skin uptake ([2]; 60 min): 4.51 ± 1.00 % dose/organ
Spleen uptake ([2]; 60 min): 0.11 ± 0.04 % dose/organ
Thyroid uptake ([2]; 60 min): 0.02 ± 0.007 % dose/organ
Blood uptake ([2]; 120 min): 2.05 ± 0.30 % dose/organ
Brain uptake ([2]; 120 min): 0.05 ± 0.002 % dose/organ
Heart uptake ([2]; 120 min): 0.07 ± 0.003 % dose/organ
Kidney uptake ([2]; 120 min): 0.62 ± 0.11 % dose/organ
Liver uptake ([2]; 120 min): 5.16 ± 1.01 % dose/organ
Lung uptake ([2]; 120 min): 0.18 ± 0.002 % dose/organ
Muscle uptake ([2]; 120 min): 2.14 ± 0.15 % dose/organ
Skin uptake ([2]; 120 min): 5.82 ± 4.37 % dose/organ
Spleen uptake ([2]; 120 min): 0.07 ± 0.009 % dose/organ
Thyroid uptake ([2]; 120 min): 0.02 ± 0.01 % dose/organ
purity on storage [3]: > 95%
logD [4]: 3.26
